Assay results: patent US20250215030A1, “STAT MODULATORS AND USES THEREOF” (Recludix Pharma, Inc., priority 2022, published 2025)

What was measured:
[1] = target: T1, Recombinant STAT6 protein (STAT6(W123-T658)) (Homo sapiens, UniProt P42226); assay: STAT6 Fluorescence Polarization (FP) Assay; assay type: binding; details: STAT6(W123-T658) 250 nM, probe 5-FAM-ApYKPFQDLI-NH2 2 nM, 45-minute incubation
T1 construct: STAT6(W123-T658)
T1 sequence (P42226 123-658): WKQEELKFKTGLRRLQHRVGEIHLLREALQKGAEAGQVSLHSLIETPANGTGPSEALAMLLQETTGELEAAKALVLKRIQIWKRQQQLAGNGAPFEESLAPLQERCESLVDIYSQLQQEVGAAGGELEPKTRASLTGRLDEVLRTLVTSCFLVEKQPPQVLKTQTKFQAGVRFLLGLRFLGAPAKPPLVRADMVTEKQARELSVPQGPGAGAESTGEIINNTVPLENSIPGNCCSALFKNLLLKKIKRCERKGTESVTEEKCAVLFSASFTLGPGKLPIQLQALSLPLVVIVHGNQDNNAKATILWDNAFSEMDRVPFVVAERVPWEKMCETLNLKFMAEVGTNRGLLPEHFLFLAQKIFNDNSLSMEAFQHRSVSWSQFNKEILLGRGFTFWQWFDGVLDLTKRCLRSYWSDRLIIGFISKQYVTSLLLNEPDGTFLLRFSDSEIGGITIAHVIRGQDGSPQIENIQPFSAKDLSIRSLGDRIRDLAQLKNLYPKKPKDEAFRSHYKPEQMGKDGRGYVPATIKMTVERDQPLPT
How it was run: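 STAT6 (W123-T658) at 250 nM mixed with 2 nM 5-FAM-ApYKPFQDLI-NH2 probe in HEPES pH 7.4 buffer with DTT and Tween 20, 1% DMSO final. Polarization read after 45 min at room temperature; IC50 by nonlinear regression of mP versus log concentration, reported in bins A–D.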

[2] = target: T2, Recombinant STAT3 protein (STAT3(G127-I722)) (Homo sapiens, UniProt P40763); assay: STAT3 Fluorescence Polarization (FP) Assay; assay type: binding; details: STAT3(G127-I722) 25 nM, probe 5-FAM-GpYLPQTV-NH2 2 nM, 45-minute incubation
T2 construct: STAT3(G127-I722)
T2 sequence (P40763 127-722, species assumed): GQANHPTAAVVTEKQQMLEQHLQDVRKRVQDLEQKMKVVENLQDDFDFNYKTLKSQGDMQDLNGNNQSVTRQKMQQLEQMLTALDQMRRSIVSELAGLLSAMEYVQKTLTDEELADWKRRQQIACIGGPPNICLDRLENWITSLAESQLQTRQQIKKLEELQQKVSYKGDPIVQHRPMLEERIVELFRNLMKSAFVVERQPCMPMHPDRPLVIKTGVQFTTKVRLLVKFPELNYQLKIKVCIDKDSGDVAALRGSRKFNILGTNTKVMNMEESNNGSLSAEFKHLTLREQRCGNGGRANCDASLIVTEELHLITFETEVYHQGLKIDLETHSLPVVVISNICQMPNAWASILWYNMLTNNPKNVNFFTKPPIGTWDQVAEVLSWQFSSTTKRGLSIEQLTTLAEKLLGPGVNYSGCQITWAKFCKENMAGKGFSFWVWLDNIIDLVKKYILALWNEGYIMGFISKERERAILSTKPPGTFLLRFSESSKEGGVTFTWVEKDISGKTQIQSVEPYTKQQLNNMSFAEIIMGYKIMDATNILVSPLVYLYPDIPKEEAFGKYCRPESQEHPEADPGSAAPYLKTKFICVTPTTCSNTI
How it was run: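 STAT3(G127-I722) at 25 nM and 5-FAM-GpYLPQTV-NH2 probe at 2 nM in HEPES pH 7.4 buffer with NaCl, EDTA, Tween 20, DTT; 1% DMSO. FP read after 45 min at room temperature; IC50 by nonlinear regression of mP vs log concentration, binned A ≤100 nM to D >10 μM.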

Compound	IC50 [1] [µM]	IC50 [2] [µM]
CC(=O)N1CC[C@@H](NC(=O)[C@@H]2CC[C@@H]3C[C@H]4C[C@H]4C[C@H](NC(=O)c4cc5cc(C(F)(F)P(=O)(O)O)ccc5s4)C(=O)N32)C1 [Compound 116, ((2-(((3S,6S,7aS,9aR)-3-(((R)-1-acetylpyrrolidin-3-yl)carbamoyl)-5-oxodecahydro-1H-cyclopropa[d]pyrrolo[1,2-a]azocin-6-yl)carbamoyl)benzo[b]thiophen-5-yl)difluoromethyl)phosphonic acid]	0.3 to 3	< 0.1
O=C(N[C@H]1C[C@@H]2C[C@@H]2C[C@H]2CC[C@@H](C(=O)N3CCC4C3CN4c3cccnc3)N2C1=O)c1cc2cc(CP(=O)(O)O)ccc2s1 (stereo partly drawn) [Example 261, ((2-(((3S,6S,7aS,8aR,9aR)-5-oxo-3-(6-(pyridin-3-yl)-2,6-diazabicyclo[3.2.0]heptane-2-carbonyl)decahydro-1H-cyclopropa[d]pyrrolo[1,2-a]azocin-6-yl)carbamoyl)benzo[b]thiophen-5-yl)methyl)phosphonic acid]	3 to 30	0.1 to 1
CC(=O)N1CC2(C1)CN(C(=O)[C@@H]1CC[C@@H]3C[C@H]4C[C@H]4C[C@H](NC(=O)c4cc5cc(C(F)(F)P(=O)(O)O)ccc5s4)C(=O)N31)C2 [Compound 40, ((2-(((3S,6S,7aS,8aR,9aR)-3-(6-acetyl-2,6-diazaspiro[3.3]heptane-2-carbonyl)-5-oxodecahydro-1H-cyclopropa[d]pyrrolo[1,2-a]azocin-6-yl)carbamoyl)benzo[b]thiophen-5-yl)difluoromethyl)phosphonic acid]	0.3 to 3	< 0.1
O=C(N[C@H]1C[C@@H]2C[C@@H]2C[C@H]2CC[C@@H](C(=O)N3CCN(C(=O)[C@H]4CCOC4)CC3)N2C1=O)c1cc2cc(C(F)(F)P(=O)(O)O)ccc2s1 [Example 8, (Difluoro(2-(((3S,6S,7aS,8aR,9aR)-5-oxo-3-(4-((S)-tetrahydrofuran-3-carbonyl)piperazine-1-carbonyl)decahydro-1H-cyclopropa[d]pyrrolo[1,2-a]azocin-6-yl)carbamoyl)benzo[b]thiophen-5-yl)methyl)phosphonic acid]	3 to 30	0.1 to 1
COC1CN(C(=O)C2CN(C(=O)[C@@H]3CC[C@@H]4C[C@H]5C[C@H]5C[C@H](NC(=O)c5cc6cc(C(F)(F)P(=O)(O)O)ccc6s5)C(=O)N43)C2)C1 [Compound 102, (difluoro(2-(((3S,6S,7aS,8aR,9aR)-3-(3-(3-methoxyazetidine-1-carbonyl)azetidine-1-carbonyl)-5-oxodecahydro-1H-cyclopropa[d]pyrrolo[1,2-a]azocin-6-yl)carbamoyl)benzo[b]thiophen-5-yl)methyl)phosphonic acid]	3 to 30	< 0.1
C[C@]12CC(NC(=O)c3cc4cc(C(F)(F)P(=O)(O)O)ccc4s3)C(=O)N3[C@H](CC[C@H]3C(=O)N3CC(c4cccnc4)C3)[C@H]1C2 (stereo partly drawn) [Compound 37, (difluoro(2-(((3S,6S,7aS,8aR,9aR)-7a-methyl-5-oxo-3-(3-(pyridin-3-yl)azetidine-1-carbonyl)decahydro-1H-cyclopropa[d]pyrrolo[1,2-a]azocin-6-yl)carbamoyl)benzo[b]thiophen-5-yl)methyl)phosphonic acid]	3 to 30	< 0.1
N#Cc1ccc(C2(F)CN(C(=O)[C@@H]3CC[C@@H]4C[C@H]5C[C@H]5C[C@H](NC(=O)c5cc6cc(C(F)(F)P(=O)(O)O)ccc6s5)C(=O)N43)C2)cc1 [Compound 62, ((2-(((3S,6S,7aS,8aR,9aR)-3-(3-(4-cyanophenyl)-3-fluoroazetidine-1-carbonyl)-5-oxodecahydro-1H-cyclopropa[d]pyrrolo[1,2-a]azocin-6-yl)carbamoyl)benzo[b]thiophen-5-yl)difluoromethyl)phosphonic acid]	0.3 to 3	< 0.1
O=C(N[C@H]1C[C@@H]2C[C@@H]2C[C@H]2CC[C@@H](C(=O)N3C[C@@H]4[C@H]3CCN4c3cccnc3)N2C1=O)c1cc2cc(C(F)P(=O)(O)O)ccc2s1 (stereo partly drawn) [Example 296, (fluoro(2-(((3S,6S,7aS,8aR,9aR)-5-oxo-3-((1R,5R)-2-(pyridin-3-yl)-2,6-diazabicyclo[3.2.0]heptane-6-carbonyl)decahydro-1H-cyclopropa[d]pyrrolo[1,2-a]azocin-6-yl)carbamoyl)benzo[b]thiophen-5-yl)methyl)phosphonic acid]	0.3 to 3	< 0.1
O=C(N[C@H]1C[C@H]2C[C@H]2C[C@H]2CC[C@@H](C(=O)N3CC[C@H](c4cnccc4F)C3)N2C1=O)c1cc2cc(C(F)P(=O)(O)O)ccc2s1 (stereo partly drawn) [Example 313, (fluoro(2-(((3S,6S,7aR,8aS,9aR)-3-((R)-3-(4-fluoropyridin-3-yl)pyrrolidine-1-carbonyl)-5-oxodecahydro-1H-cyclopropa[d]pyrrolo[1,2-a]azocin-6-yl)carbamoyl)benzo[b]thiophen-5-yl)methyl)phosphonic acid]	0.3 to 3	< 0.1
NC(=O)N1CC[C@@H](NC(=O)[C@@H]2CC[C@@H]3C[C@H]4C[C@H]4C[C@H](NC(=O)c4cc5cc(C(F)(F)P(=O)(O)O)ccc5s4)C(=O)N32)C1 [Compound 118, ((2-(((3S,6S,7aS,8aR,9aR)-3-(((R)-1-carbamoylpyrrolidin-3-yl)carbamoyl)-5-oxodecahydro-1H-cyclopropa[d]pyrrolo[1,2-a]azocin-6-yl)carbamoyl)benzo[b]thiophen-5-yl)difluoromethyl)phosphonic acid]	0.3 to 3	< 0.1
O=C(N[C@H]1C[C@@H]2C[C@@H]2C[C@H]2CC[C@@H](C(=O)N3CCOc4cc(F)ccc43)N2C1=O)c1cc2cc(C(F)P(=O)(O)O)ccc2s1 (stereo partly drawn) [Example 384, (fluoro(2-(((3S,6S,7aS,8aR,9aR)-3-(7-fluoro-3,4-dihydro-2H-benzo[b][1,4]oxazine-4-carbonyl)-5-oxodecahydro-1H-cyclopropa[d]pyrrolo[1,2-a]azocin-6-yl)carbamoyl)benzo[b]thiophen-5-yl)methyl)phosphonic acid]	3 to 30	1 to 10
C[C@]12CC[C@H](NC(=O)c3cc4cc(CP(=O)(O)O)ccc4s3)C(=O)N3[C@H](CC[C@H]3C(=O)N3CC(c4cccnc4)C3)[C@H]1C2 [Example 235, ((2-(((3S,6S,8aR,9aS,9bR)-8a-methyl-5-oxo-3-(3-(pyridin-3-yl)azetidine-1-carbonyl)decahydro-1H-cyclopropa[c]pyrrolo[1,2-a]azocin-6-yl)carbamoyl)benzo[b]thiophen-5-yl)methyl)phosphonic acid]	> 30	0.1 to 1
Cc1ccncc1C1CN(C(=O)[C@@H]2CC[C@@H]3C[C@H]4C[C@H]4C[C@H](NC(=O)c4cc5cc(C(F)P(=O)(O)O)ccc5s4)C(=O)N32)C1 (stereo partly drawn) [Example 280, (fluoro(2-(((3S,6S,7aS,8aR,9aR)-3-(3-(4-methylpyridin-3-yl)azetidine-1-carbonyl)-5-oxodecahydro-1H-cyclopropa[d]pyrrolo[1,2-a]azocin-6-yl)carbamoyl)benzo[b]thiophen-5-yl)methyl)phosphonic acid]	3 to 30	< 0.1
O=C(N[C@H]1C[C@@H]2C[C@@H]2C[C@H]2CC[C@@H](C(=O)N3CC(Oc4cnccn4)C3)N2C1=O)c1cc2cc(CP(=O)(O)O)ccc2s1 [Example 334, ((2-(((3S,6S,7aS,8aR,9aR)-5-oxo-3-(3-(pyrazin-2-yloxy)azetidine-1-carbonyl)decahydro-1H-cyclopropa[d]pyrrolo[1,2-a]azocin-6-yl)carbamoyl)benzo[b]thiophen-5-yl)methyl)phosphonic acid]	> 30	1 to 10
O=C(N[C@H]1C[C@@H]2C[C@@H]2C[C@H]2CC[C@@H](C(=O)N3CC(C4CCOCC4)C3)N2C1=O)c1cc2cc(C(F)(F)P(=O)(O)O)ccc2s1 [Compound 96, (difluoro(2-(((3S,6S,7aS,8aR,9aR)-5-ox0-3-(3-(tetrahydro-2H-pyran-4-yl)azetidine-1-carbonyl)decahydro-1H-cyclopropa[d]pyrrolo[1,2-a]azocin-6-yl)carbamoyl)benzo[b]thiophen-5-yl)methyl)phosphonic acid]	3 to 30	0.1 to 1
O=C(N[C@H]1C[C@H]2C[C@H]2C[C@H]2CC[C@@H](C(=O)N[C@H]3CN(c4cccnc4)C[C@@H]3F)N2C1=O)c1cc2cc(CP(=O)(O)O)ccc2s1 [Example 253, ((2-(((3S,6S,7aR,8aS,9aR)-3-(((3S,4S)-4-fluoro-1-(pyridin-3-yl)pyrrolidin-3-yl)carbamoyl)-5-oxodecahydro-1H-cyclopropa[d]pyrrolo[1,2-a]azocin-6-yl)carbamoyl)benzo[b]thiophen-5-yl)methyl)phosphonic acid]	3 to 30	< 0.1
